Experimental data reported in PubChem BioAssay (NCI).
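Cultured in 96-well plates, cells were exposed to test compound for 48 hours across five concentrations. At the TGI there is no net growth.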

Legend:
Assay in all cases: growth of human tumour cells (NCI), 48 h
[1] = system: SW-620 colon
[2] = system: CCRF-CEM leukemia
[3] = system: CAKI-1 renal
[4] = system: OVCAR-5 ovarian
[5] = system: NCI/ADR-RES ovarian
[6] = system: COLO 205 colon
[7] = system: UACC-62 melanoma
[8] = system: UO-31 renal
[9] = system: HCT-116 colon
[10] = system: OVCAR-4 ovarian
[11] = system: HS 578T breast
[12] = system: RPMI-8226 leukemia
[13] = system: SK-OV-3 ovarian
[14] = system: KM12 colon
[15] = system: SK-MEL-28 melanoma
[16] = system: 786-0 renal
[17] = system: TK-10 renal
[18] = system: BT-549 breast
[19] = system: HL-60(TB) leukemia
[20] = system: UACC-257 melanoma
[21] = system: OVCAR-8 ovarian
[22] = system: HOP-92 NSCLC
[23] = system: NCI-H460 lung
[24] = system: MCF7 breast
[25] = system: SF-539 CNS
[26] = system: HOP-62 NSCLC
[27] = system: IGROV1 ovarian
[28] = system: MDA-MB-435
[29] = system: MALME-3M melanoma
[30] = system: M14 melanoma
[31] = system: SK-MEL-2 melanoma
[32] = system: SF-268 CNS
[33] = system: EKVX NSCLC
[34] = system: U251 CNS
[35] = system: NCI-H522 lung
[36] = system: DU-145 prostate
[37] = system: A549 NSCLC
[38] = system: SN12C renal
[39] = system: ACHN renal
[40] = system: OVCAR-3 ovarian
[41] = system: SK-MEL-5 melanoma
[42] = system: MOLT-4 leukemia
[43] = system: HT29 colon
[44] = system: HCT-15 colon
[45] = system: T-47D breast
[46] = system: LOX IMVI melanoma
[47] = system: SNB-19 CNS
[48] = system: PC-3 prostate
[49] = system: NCI-H23 lung
[50] = system: SF-295 CNS
[51] = system: MDA-MB-231 breast
[52] = system: MDA-N
[53] = system: K-562 leukemia
[54] = system: RXF 393 renal
[55] = system: SNB-75 CNS
[56] = system: SR leukemia
[57] = system: A498 renal
[58] = system: NCI-H226 lung
[59] = system: HCC-2998 colon

CCOC(=O)c1c(C)n(C)c2c1cc(O)c1[nH]c3c(c12)CCCC3
TGI [1]: 44.1 µM | TGI [2]: 43.6 µM | TGI [3]: > 100 µM | TGI [4]: 65.1 µM | TGI [5]: 54 µM | TGI [6]: 23.5 µM | TGI [7]: 35.8 µM | TGI [8]: 69.9 µM | TGI [9]: 50.3 µM | TGI [10]: 23.5 µM | TGI [11]: 87.4 µM | TGI [12]: 18.7 µM | TGI [13]: > 100 µM | TGI [14]: 37.3 µM | TGI [15]: 32.8 µM | TGI [16]: 42.3 µM | TGI [17]: 60.9 µM | TGI [18]: > 100 µM | TGI [19]: 46.7 µM | TGI [20]: 31.7 µM | TGI [21]: 66.3 µM | TGI [22]: 16.8 µM | TGI [23]: 42.9 µM | TGI [24]: 19.4 µM | TGI [25]: 37.9 µM | TGI [26]: > 100 µM | TGI [27]: 37.2 µM | TGI [28]: 29.6 µM | TGI [29]: 31.7 µM | TGI [30]: 29.2 µM | TGI [31]: 37 µM | TGI [32]: 21.8 µM | TGI [33]: 45.1 µM | TGI [34]: 36.8 µM | TGI [35]: 28.7 µM | TGI [36]: > 100 µM | TGI [37]: 58.7 µM | TGI [38]: 61.3 µM | TGI [39]: > 100 µM | TGI [40]: 25.1 µM | TGI [41]: 25.6 µM | TGI [42]: 45.6 µM | TGI [43]: 49.4 µM | TGI [44]: > 100 µM | TGI [45]: 48.4 µM | TGI [46]: 29.7 µM | TGI [47]: > 100 µM | TGI [48]: 46.6 µM | TGI [49]: 52.7 µM | TGI [50]: > 100 µM | TGI [51]: 43.9 µM | TGI [52]: 34.3 µM | TGI [53]: 40.3 µM

CC(=O)OCC(C)(COC(C)=O)N1C(=O)C2C3c4ccccc4C(c4ccccc43)C2C1=O (centres undefined)
TGI [1]: > 100 µM | TGI [2]: > 100 µM | TGI [3]: > 100 µM | TGI [4]: > 100 µM | TGI [6]: > 100 µM | TGI [7]: > 100 µM | TGI [8]: > 100 µM | TGI [9]: > 100 µM | TGI [54]: > 100 µM | TGI [55]: > 100 µM | TGI [11]: > 100 µM | TGI [12]: > 100 µM | TGI [13]: > 100 µM | TGI [14]: > 100 µM | TGI [16]: > 100 µM | TGI [56]: > 100 µM | TGI [17]: > 100 µM | TGI [18]: > 100 µM | TGI [19]: > 100 µM | TGI [20]: > 100 µM | TGI [21]: > 100 µM | TGI [22]: > 100 µM | TGI [23]: > 100 µM | TGI [24]: > 100 µM | TGI [25]: > 100 µM | TGI [57]: > 100 µM | TGI [27]: > 100 µM | TGI [28]: > 100 µM | TGI [30]: > 100 µM | TGI [32]: > 100 µM | TGI [33]: > 100 µM | TGI [34]: > 100 µM | TGI [58]: > 100 µM | TGI [36]: > 100 µM | TGI [37]: > 100 µM | TGI [39]: > 100 µM | TGI [40]: > 100 µM | TGI [41]: > 100 µM | TGI [42]: > 100 µM | TGI [43]: > 100 µM | TGI [44]: > 100 µM | TGI [45]: > 100 µM | TGI [46]: > 100 µM | TGI [47]: > 100 µM | TGI [48]: > 100 µM | TGI [49]: > 100 µM | TGI [50]: > 100 µM | TGI [51]: > 100 µM | TGI [52]: > 100 µM | TGI [53]: > 100 µM

CCOc1ccccc1-c1nc2c(s1)C(=O)c1ccccc1C2=O
TGI [1]: 23.4 µM | TGI [3]: 26.7 µM | TGI [4]: 40.1 µM | TGI [6]: 58.9 µM | TGI [7]: 13.8 µM | TGI [8]: 25.4 µM | TGI [9]: 29.3 µM | TGI [54]: 31.5 µM | TGI [10]: 35 µM | TGI [55]: 25.6 µM | TGI [59]: 29.5 µM | TGI [11]: 62.3 µM | TGI [12]: 54.8 µM | TGI [13]: 28.2 µM | TGI [14]: 29.8 µM | TGI [15]: 30.4 µM | TGI [16]: 30.5 µM | TGI [56]: > 100 µM | TGI [17]: 34.4 µM | TGI [19]: 4.4 µM | TGI [20]: 27.3 µM | TGI [22]: 25 µM | TGI [23]: 39.2 µM | TGI [24]: 46.3 µM | TGI [25]: 40.9 µM | TGI [26]: 28.7 µM | TGI [57]: 29.4 µM | TGI [27]: 27.7 µM | TGI [28]: 4.31 µM | TGI [29]: 19.8 µM | TGI [30]: 36.7 µM | TGI [31]: 30 µM | TGI [32]: 29 µM | TGI [33]: 41.2 µM | TGI [34]: 27.7 µM | TGI [35]: 97.7 µM | TGI [36]: 36.5 µM | TGI [37]: 36.9 µM | TGI [38]: > 100 µM | TGI [39]: 29.2 µM | TGI [40]: 8.01 µM | TGI [41]: 18.7 µM | TGI [42]: > 100 µM | TGI [44]: > 100 µM | TGI [45]: 63.9 µM | TGI [46]: 16.7 µM | TGI [47]: 65.3 µM | TGI [48]: 29.6 µM | TGI [49]: 31 µM | TGI [50]: 25.1 µM | TGI [51]: 12.7 µM | TGI [52]: 6.5 µM | TGI [53]: 32.4 µM

CCN(CC)c1ccc2nc3ccc(N=Nc4c(O)ccc5ccccc45)cc3[n+](-c3ccccc3)c2c1
TGI [1]: > 100 µM | TGI [2]: > 100 µM | TGI [3]: > 100 µM | TGI [4]: > 100 µM | TGI [5]: > 100 µM | TGI [6]: > 100 µM | TGI [7]: > 100 µM | TGI [8]: > 100 µM | TGI [9]: > 100 µM | TGI [54]: > 100 µM | TGI [10]: > 100 µM | TGI [55]: > 100 µM | TGI [11]: > 100 µM | TGI [12]: > 100 µM | TGI [13]: > 100 µM | TGI [14]: > 100 µM | TGI [15]: > 100 µM | TGI [16]: > 100 µM | TGI [56]: > 100 µM | TGI [17]: > 100 µM | TGI [18]: > 100 µM | TGI [19]: > 100 µM | TGI [20]: > 100 µM | TGI [21]: > 100 µM | TGI [22]: > 100 µM | TGI [26]: > 100 µM | TGI [27]: > 100 µM | TGI [28]: > 100 µM | TGI [29]: > 100 µM | TGI [30]: > 100 µM | TGI [31]: > 100 µM | TGI [32]: > 100 µM | TGI [33]: > 100 µM | TGI [34]: > 100 µM | TGI [58]: > 100 µM | TGI [35]: > 100 µM | TGI [36]: > 100 µM | TGI [37]: > 100 µM | TGI [38]: > 100 µM | TGI [39]: > 100 µM | TGI [40]: > 100 µM | TGI [41]: > 100 µM | TGI [42]: > 100 µM | TGI [43]: > 100 µM | TGI [44]: > 100 µM | TGI [45]: > 100 µM | TGI [47]: > 100 µM | TGI [48]: > 100 µM | TGI [49]: > 100 µM | TGI [50]: > 100 µM | TGI [51]: > 100 µM | TGI [52]: > 100 µM | TGI [53]: > 100 µM
